Results on three compounds are retold here after patent US9434697B2, “Pyrimidine FGFR4 inhibitors” (priority 2013, dated 2016).

pIC50: −log10 of the molar value. Where two headings read alike, the source gives them in different places. Some results are limits rather than exact numbers.

For data set [1], the system named is HEP3B tumor xenografts. It is filed as in vivo.
The target of data set [2] is Recombinant FGFR4 (Homo sapiens (Human), UniProt P22455). As to the kind of experiment: Kinase HotSpot assay, IC50 profiling of kinase activity inhibition (FGFR4). The following applies: Table 1; 10 μM ATP. It counts as biochemical.
Sequence of Recombinant FGFR4 (P22455 22-802): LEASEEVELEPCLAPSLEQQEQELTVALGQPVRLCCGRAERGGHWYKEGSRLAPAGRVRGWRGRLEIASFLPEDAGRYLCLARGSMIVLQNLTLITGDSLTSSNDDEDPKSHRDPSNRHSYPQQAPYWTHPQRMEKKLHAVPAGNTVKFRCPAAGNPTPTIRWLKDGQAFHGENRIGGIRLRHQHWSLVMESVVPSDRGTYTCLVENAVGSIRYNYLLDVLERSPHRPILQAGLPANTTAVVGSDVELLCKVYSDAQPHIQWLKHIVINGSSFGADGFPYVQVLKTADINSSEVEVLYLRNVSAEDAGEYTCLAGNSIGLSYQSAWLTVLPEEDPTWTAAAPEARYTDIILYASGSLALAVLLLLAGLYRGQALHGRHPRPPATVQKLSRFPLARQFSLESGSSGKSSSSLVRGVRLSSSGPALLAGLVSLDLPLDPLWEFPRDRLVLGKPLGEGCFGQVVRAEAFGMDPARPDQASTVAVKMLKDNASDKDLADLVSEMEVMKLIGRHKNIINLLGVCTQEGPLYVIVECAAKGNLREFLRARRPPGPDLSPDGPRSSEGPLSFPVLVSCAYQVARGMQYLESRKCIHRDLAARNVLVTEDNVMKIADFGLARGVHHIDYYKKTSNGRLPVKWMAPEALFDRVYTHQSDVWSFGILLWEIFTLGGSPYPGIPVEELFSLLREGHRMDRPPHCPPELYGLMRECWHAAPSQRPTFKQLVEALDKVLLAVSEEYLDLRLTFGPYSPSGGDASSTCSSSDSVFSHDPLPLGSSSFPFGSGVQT
The target in data set [3] is Recombinant FGFR1 (Homo sapiens (Human), UniProt P11362). As to the kind of experiment: Kinase HotSpot assay, IC50 profiling of kinase activity inhibition (FGFR1). The following applies: Table 1; 10 μM ATP. It is filed as biochemical.
Sequence of Recombinant FGFR1 (P11362 22-822): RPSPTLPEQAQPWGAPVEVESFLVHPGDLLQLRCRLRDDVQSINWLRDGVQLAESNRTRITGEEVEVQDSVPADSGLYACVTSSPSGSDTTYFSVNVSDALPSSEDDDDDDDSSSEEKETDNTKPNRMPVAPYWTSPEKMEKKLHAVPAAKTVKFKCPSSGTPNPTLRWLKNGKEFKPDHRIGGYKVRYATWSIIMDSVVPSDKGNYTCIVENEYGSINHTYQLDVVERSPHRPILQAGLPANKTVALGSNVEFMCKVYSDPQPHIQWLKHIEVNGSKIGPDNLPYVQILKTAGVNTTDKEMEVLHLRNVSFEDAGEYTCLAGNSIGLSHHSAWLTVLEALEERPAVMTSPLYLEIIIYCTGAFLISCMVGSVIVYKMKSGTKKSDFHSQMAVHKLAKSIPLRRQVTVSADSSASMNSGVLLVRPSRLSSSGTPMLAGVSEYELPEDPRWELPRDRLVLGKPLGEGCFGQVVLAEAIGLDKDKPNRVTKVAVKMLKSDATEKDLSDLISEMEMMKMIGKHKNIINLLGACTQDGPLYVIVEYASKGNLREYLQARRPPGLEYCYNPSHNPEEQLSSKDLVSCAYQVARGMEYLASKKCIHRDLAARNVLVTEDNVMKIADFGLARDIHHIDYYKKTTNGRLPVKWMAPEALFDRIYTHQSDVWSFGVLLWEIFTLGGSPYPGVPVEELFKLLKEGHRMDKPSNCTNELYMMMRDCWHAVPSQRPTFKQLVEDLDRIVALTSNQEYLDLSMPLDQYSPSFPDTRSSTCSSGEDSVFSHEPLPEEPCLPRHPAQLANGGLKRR

Take `C=CC(=O)Nc1cc(N2CCN(CC)CC2)ccc1Nc1cc(N(C)C(=O)Nc2c(Cl)c(OC)cc(OC)c2Cl)ncn1` [Example 108, N-(2-(6-(3-(2,6-Dichloro-3,5-dimethoxyphenyl)-1-methylureido)pyrimidin-4-ylamino)-5-(4-ethylpiperazin-1-yl)phenyl)acrylamide]: in data set [1] (25, 37.5 or 50 mg/kg i.p. twice daily, 18 days), the “comparative in vivo efficacy (tumor volume)” value is given as “more efficacious than BGJ398 at tolerable dosage levels”.

Regarding `C=CC(=O)Nc1ccccc1Nc1cc(N(C)C(=O)Nc2cc(OC)cc(OC)c2)ncn1` [Example 102], the pIC50 in data set [2] is 6.07; in data set [3], < 5.00.

On to `CCN1CCN(c2ccc(Nc3cc(N(C)C(=O)Nc4c(Cl)c(OC)cc(OC)c4Cl)ncn3)cc2)CC1` [BGJ398], for which the “tolerability (health of animals)” value in data set [1] (30 mg/kg orally twice daily) is “did not exhibit poor health”. Further, in data set [1] (60 mg/kg orally twice daily), the “comparative in vivo efficacy (tumor volume)” value is “efficacy comparable to compound 108” and the “tolerability (health of animals)” value is on record as “terminated on Day 11 due to poor health of animals”.
